Each structure is given as a SMILES string.

What all share (type): in vivo
Data set [1] has as its system Bemisia tabaci SUD-S. Briefly: Leaf-dip bioassay, adult whiteflies, insecticide-susceptible strain SUD-S. As to conditions: adults, mortality after 72 h. The source says: (§1) Es wurden Versuche durchgeführt, um die überlegene Blattwirkung von Enaminocarbonylverbindungen gegen adulte Tiere eines Stamms von Bemisia tabaci zu zeigen, der bekanntermaßen resistent ist gegen Neonikotinoid-Insektizide sowie andere Insektizidklassen, einschließlich Insekten-Wachstumsregulatoren (wie Buprofezin) und Antifeedants (Substanzen, die einen Schaderreger vom Fraß abhalten) (wie Pymetrozin).
(§2) Baumwollblattscheiben (30 mm im Durchmesser) wurden für 5 sec in wässrige Lösungen technischer Insektizide, enthaltend 0,2 g/l Triton-X-100 als nicht-ionisches Benetzungsmittel, getaucht. Luftgetrocknete Blattscheiben wurden dann mit der adaxialen Seite nach unten auf ein Agarbett (12 g/l) in einer kleinen Petrischale (40 mm im Durchmesser) gelegt. Adulte Weiße Fliegen wurden mittels eines Vakuum-getriebenen Aspirators aus Aufzuchtkäfigen eingesammelt und 20 adulte Tiere wurden nach kurzer CO2-Narkose auf die Blattscheiben gelegt. Anschließend wurde jede Petrischale mit einem belüfteten Deckel verschlossen und umgedreht aufbewahrt. Nach 72 h wurde die Mortalität der Weißen Fliegen bestimmt. Jedes Insektizid wurde mindestens dreifach mit 2-oder 3-fach Bestimmungen pro Konzentration getestet.
(§3) LC50-Werte wurden aus Probit-Regressionen unter Verwendung des Computerprogramms POLO-PC 2 (LeOra Software, Berkeley, USA) berechnet.
(§4) Tabelle 1. Log-Dosis Probit Mortalitätsdaten für verschiedene Klassen von Insektiziden erhalten aus Blatt-Tauch-Bioassays gegen adulte Tiere zweier Bemisia tabaci Stämme, SUD-S und ESP-00, die bekanntermaßen Insektizid-empfindlich (SUD-S) bzw. multiresistent (ESP-00) sind (Stumpf und Nauen, 2003). Mortalität wurde nach 72 h bestimmt, mit Ausnahme von Buprofezin (10-12 d).

The subject of data set [2] is Bemisia tabaci ESP-00. Briefly: Leaf-dip bioassay, adult whiteflies, multi-resistant strain ESP-00. The following applies: adults; for ESP-00 LC50: multi-resistant strain ESP-00, mortality after 72 h.
Text: as §1, §2, §3, §4

Data set [3] has as its system Nilaparvata lugens Vietnam. Briefly: Spray test on infested rice seedlings (standard screening), resistant strain Vietnam. The following applies: rice seedlings sprayed, evaluation 7 days after infection. The source says: Reissetzlinge wurden mit Stämmen von Nilaparvata lugens (Bayer S und Vietnam) infiziert und mit der Verbindung I-5 bzw. mit Imidacloprid besprüht. Die Auswertung erfolgte 7 Tage nach Infektion (Standard-Screening-Verfahren).

Data set [4] has as its system Nymphen von Bemisia tabaci. Description: Field trial on pepper plants, spray, against nymphs of neonicotinoid-resistant whiteflies (Almeria). The following applies: sprayed 3x, 150 g ai/ha/m CH, I-5 SL 200, Imidacloprid OD 200. The source says: (§5) In Almeria (Südspanien) wurden Paprikapflanzen, die sehr stark mit Nymphen von bekanntermaßen Neonikotinoyl-resistenten Weißen Fliegen (Bemisia tabaci) infiziert waren, jeweils drei Mal im Abstand von 9 und 12 Tagen mit der Verbindung I-5 (SL 200, 150 g ai/ha/m CH (g aktive Substanz/ha/m CH, CH = Laubwand-Höhe) bzw. mit Imidacloprid (OD 200, 150 g ai/ha/m CH) besprüht. Zu verschiedenen Zeitpunkten nach der dritten Behandlung (DAC = Tage nach 3. Behandlung) wurde die Wirksamkeit (in % Abbott: Verhältnis der Anzahl Nymphen auf behandelter Pflanze / Fläche zur Anzahl Nymphen auf Kontrolle) der beiden Substanzen gegen Nymphen von Bemisia tabaci in bestimmt.

Data set [5] deals with Nymphen von Bemisia tabaci. Briefly: Field trial on aubergine plants, drench, against nymphs of neonicotinoid-resistant whiteflies (Almeria). The following applies: drenched 3x, 150 g ai/ha/m CH, I-5 SL 300, Imidacloprid SL 200.
Text: as §5, with “wurden Auberginenpflanzen,” for “wurden Paprikapflanzen,”, “die” for “die sehr”, “Neonikotinoyl-resistenten weißen” for “Neonikotinoyl-resistenten Weißen”, “(SL 300,” for “(SL 200,”, “Imidacloprid (SL” for “Imidacloprid (OD”, “CH) gegossen.” for “CH) besprüht.”

Data set [6] concerns Eier von Bemisia argentifolii. Briefly: Field trial on melon plants, spray, against eggs of neonicotinoid-resistant silverleaf whiteflies (Arizona). The following applies: 150 g ai/ha/m CH, I-5 SL 100, Imidacloprid SC 192. The text has this:
In Arizona (USA) wurden Melonenpflanzen, die stark mit Eiern von bekanntermaßen Neonikotinoyl-resistenten Silberflügeligen Weißen Fliegen (Bemisia argentifolii) infiziert waren, jeweils zwei Mal im Abstand von 15 Tagen mit der Verbindung I-5 (SL 100, 150 g ai/ha/m CH (g aktive Substanz/ha/m CH, CH = Laubwand-Höhe) bzw. mit Imidacloprid (SC 192, 150 g ai/ha/m CH) besprüht. Zu verschiedenen Zeitpunkten nach der ersten bzw. zweiten Behandlung (DAA = Tage nach 1. Behandlung, DAB = Tage nach zweiter Behandlung) wurde die Wirksamkeit (in % Abbott: Verhältnis der Anzahl Eier auf behandelter Pflanze / Fläche zur Anzahl Eier auf Kontrolle) der beiden Substanzen gegen Eier von Bemisia argentifolii bestimmt.

Data set [7] deals with Nilaparvata lugens. Description: Field trial on rice plants, spray, against neonicotinoid-resistant brown planthoppers (Thailand). The following applies: 50 g ai/ha/m CH, both SL 100. The source says: In Banglane (Thailand) wurden Reispflanzen, die stark mit bekanntermaßen Neonikotinoyl-resistenten Braunrückigen Reiszikaden (Nilaparvata lugens) infiziert waren, jeweils zwei Mal im Abstand von 14 Tagen mit der Verbindung 1-5 (SL 100, 50 g ai/ha/m CH (g aktive Substanz/ha/m CH, CH = Laubwand-Höhe) bzw. mit Imidacloprid (SL 100, 50 g ai/ha/m CH) besprüht. Zu verschiedenen Zeitpunkten nach der ersten bzw. zweiten Behandlung (DAA = Tage nach 1. Behandlung, DAB = Tage nach zweiter Behandlung) wurde die Wirksamkeit (in % Abbott: Verhältnis der Anzahl Tier auf behandelter Pflanze / Fläche zur Anzahl Tiere auf Kontrolle) der beiden Substanzen gegen Nilaparvata lugens bestimmt.

Where [8] appears, read: 7 DAC (days after 3rd treatment).
Setting [9] is: 7 DAB (days after 2nd treatment), sprayed 2x.
Setting [10] is: 8 DAA (days after 1st treatment), sprayed.

Regarding `O=[N+]([O-])NC1=NCCN1Cc1ccc(Cl)nc1` [Imidacloprid], the “SUD-S LC50” value in data set [1] was found to be 0.82 ppm. The “ESP-00 LC50” value in data set [2] turned out to be 300 ppm. The “Vietnam (resistenter Stamm) LC50” value in data set [3] was found to be 13 g/ha. In addition, the Effizienz is 76,7 % Abbott in data set [4] (setting [8]); 75,3 % Abbott in data set [4] (14 DAC); 75,1 % Abbott in data set [4] (21 DAC); 1,3 % Abbott in data set [4] (28 DAC); 41 % Abbott in data set [5] (7 DAC); 50,7 % Abbott in data set [5] (14 DAC). Moreover, the Effizienz is recorded as 21 % Abbott in data set [5] (21 DAC); 30,2 % Abbott in data set [6] (setting [9]); 66,1 % Abbott in data set [6] (setting [10]); 0 % Abbott in data set [6] (13 DAB, sprayed 2x); 69,5 % Abbott in data set [6] (14 DAA, sprayed); 19,6 % Abbott in data set [7] (1 DAA, sprayed). Moreover, the Effizienz is 24,9 % Abbott in data set [7] (3 DAA, sprayed); 36,5 % Abbott in data set [7] (5 DAA, sprayed); 26,6 % Abbott in data set [7] (7 DAA, sprayed); 19,8 % Abbott in data set [7] (7 DAB, sprayed 2x); 17,8 % Abbott in data set [7] (14 DAA, sprayed); 26,4 % Abbott in data set [7] (14 DAB, sprayed 2x).
On to `O=C1C=C(N(Cc2ccc(Cl)nc2)CC(F)F)CO1` [Verbindung I-5, 4-{[(6-Chlorpyrid-3-yl)methyl](2,2-difluorethyl)amino}furan-2(5H)-on], for which, in data set [1], the “SUD-S LC50” value amounted to 6.7 ppm. For the same molecule, the “Resistenz / Kreuz-resistenz von adulten B. tabaci Tieren des Stamms ESP-00 im Vergleich zu SUD-S” value in data set [2] (leaf-dip, result in words) is reported as “nur geringfügige Kreuz-resistenz”. In addition, in data set [2], the “ESP-00 LC50” value was determined as 36 ppm. The “Vietnam (resistenter Stamm) LC50” value in data set [3] was 3,2 g/ha. Also, the Effizienz in data set [4] (setting [8]) is 99,2 % Abbott; in data set [4] (14 DAC), 98,5 % Abbott; in data set [4] (21 DAC), 97,4 % Abbott; in data set [4] (28 DAC), 84,3 % Abbott; in data set [5] (7 DAC), 79,1 % Abbott; in data set [5] (14 DAC), 63,7 % Abbott. The Effizienz is 66,8 % Abbott in data set [5] (21 DAC); 81,6 % Abbott in data set [6] (setting [9]); 97,6 % Abbott in data set [6] (setting [10]); 69 % Abbott in data set [6] (13 DAB, sprayed 2x); 72,9 % Abbott in data set [6] (14 DAA, sprayed); 19 % Abbott in data set [7] (1 DAA, sprayed). The Effizienz in data set [7] (3 DAA, sprayed) is given as 39 % Abbott; in data set [7] (5 DAA, sprayed) it was 66,8 % Abbott; in data set [7] (7 DAA, sprayed), 70,3 % Abbott; in data set [7] (7 DAB, sprayed 2x), 69,5 % Abbott; in data set [7] (14 DAA, sprayed), 65,7 % Abbott; in data set [7] (14 DAB, sprayed 2x), 55,9 % Abbott.

The values are drawn from patent publication EP2198709A1, “Method for treating resistant animal pests” (Bayer CropScience AG, priority 2008, dated 2010).
